Laboratory results from US20100298141A1, “SUBSTITUTED PYRIDINE N-OXIDE HERBICIDES” (E. I. DU PONT DE NEMOURS AND COMPANY, priority 2007, published 2010).

How the values were obtained:
crabgrass = assay: Test A pre-/postemergence greenhouse test; assay type: in vivo, Digitaria sanguinalis; settings: for Crabgrass, Large plant response rating: 0 to 100 scale
Procedure, shortened: (§1)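 Pots of loam–sand soil sown with the test species are sprayed preemergence on the soil surface; emerged seedlings (1–2 leaves, 2–10 cm) are sprayed postemergence at the same time. The vehicle is a non-phytotoxic solvent mixture with surfactant. Injury is scored visually after ~10 d in greenhouse.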

umbrella sedge = assay: Test C flooded paddy test; assay type: in vivo, Cyperus difformis; settings: Flood
Procedure, shortened: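 Greenhouse pots flooded to 3 cm above soil at time of treatment received compound via the water, which stayed at that level.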

common ragweed = assay: Test C pre-/postemergence test; assay type: in vivo, Ambrosia elation
Procedure, shortened: (§2)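 Test chemicals were formulated with surfactant in a non-phytotoxic solvent and sprayed both on freshly planted seeds (preemergence) and on 1- to 4-leaf plants of 2–18 cm (postemergence). Flooded-paddy pots received compound directly into 3 cm of standing water, maintained for the test.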

johnsongrass = assay: Test C pre-/postemergence test; assay type: in vivo, Sorghum halepense
Procedure, shortened: as §2

yellow nutsedge = assay: Test C pre-/postemergence test; assay type: in vivo, Cyperus esculentus
Procedure, shortened: as §2

corn = assay: Test C pre-/postemergence test; assay type: in vivo, Zea mays
Procedure, shortened: as §2

downy brome = assay: Test C pre-/postemergence test; assay type: in vivo, Bromus tectorum
Procedure, shortened: as §2

soybean = assay: Test C pre-/postemergence test; assay type: in vivo, Glycine max
Procedure, shortened: as §2

wheat = assay: Test A pre-/postemergence greenhouse test; assay type: in vivo, Triticum aestivum; settings: for Wheat plant response rating: 0 to 100 scale
Procedure, shortened: as §1

morningglory [1] = assay: Test A pre-/postemergence greenhouse test; assay type: in vivo, Ipomoea spp.; settings: for Morningglory plant response rating: 0 to 100 scale
Procedure, shortened: as §1

Goosegrass = assay: Test C pre-/postemergence test; assay type: in vivo, Eleusin indica
Procedure, shortened: as §2

cocklebur = assay: Test C pre-/postemergence test; assay type: in vivo, Xanthium strumarium
Procedure, shortened: as §2

morningglory [2] = assay: Test C pre-/postemergence test; assay type: in vivo, Ipomoea coccinea
Procedure, shortened: as §2

lambsquarters = assay: Test C pre-/postemergence test; assay type: in vivo, Chenopodium album
Procedure, shortened: as §2

giant foxtail [3] = assay: Test C pre-/postemergence test; assay type: in vivo, Setaria faberii
Procedure, shortened: as §2

woolly cupgrass = assay: Test C pre-/postemergence test; assay type: in vivo, Eriochloa villosa
Procedure, shortened: as §2

giant foxtail [4] = assay: Test A pre-/postemergence greenhouse test; assay type: in vivo, Setaria faberi; settings: for Foxtail, Giant plant response rating: 0 to 100 scale
Procedure, shortened: as §1

[5] = Postemergence, 125 g ai/ha, 0 to 100 scale where 0 is no effect and 100 is complete control
[6] = Postemergence, 500 g ai/ha, 0 is no effect, 100 is complete control
[7] = Preemergence, 125 g ai/ha, 0 no effect, 100 complete control
[8] = Preemergence, 500 g ai/ha, 0 no effect, 100 complete control
[9] = 62 g ai/ha, Preemergence, scale 0 to 100
[10] = 125 g ai/ha, preemergence, scale 0 (no effect) to 100 (complete control)
[11] = Preemergence, 31 g ai/ha, scale 0 to 100 (0 no effect, 100 complete control)
[12] = preemergence, 250 g ai/ha, scale 0 (no effect) to 100 (complete control)

In the case of `CCc1cc[n+]([O-])c([S+]([O-])Cc2c(C(F)(F)F)nn(C)c2OC(F)F)c1` (stereo not drawn) [Compound 101], the “Plant response rating, Crabgrass, Large” value (crabgrass; [5]) is reported as 60, the “Crabgrass, Large plant response rating” value (crabgrass; [6]) is reported as 90 and the “Crabgrass, Large plant response rating” value (crabgrass; [7]) is reported as 90. The “Crabgrass, Large plant response rating” value (crabgrass; [8]) was 100, the “Plant response rating, Sedge, Umbrella” value (umbrella sedge; 62 g ai/ha, scale 0 to 100 (0 no effect, 100 complete control)) was 0 and the “Plant response rating, Sedge, Umbrella” value (umbrella sedge; 250 g ai/ha, scale 0 to 100, 0 no effect, 100 complete control, 13 to 15 days) was 90. For the same compound, the “Ragweed plant response rating” value (common ragweed; [9]) was 10, the “Ragweed plant response rating” value (common ragweed; [10]) was 100 and the “Plant response rating, Ragweed” value (common ragweed; [11]) was 0. The “Ragweed plant response rating” value (common ragweed; [12]) was 100, the “Johnsongrass plant response rating” value (johnsongrass; [9]) was 85 and the “Johnsongrass plant response rating” value (johnsongrass; [10]) was 95. The “Plant response rating, Johnsongrass” value (johnsongrass; [11]) was 70, the “Johnsongrass plant response rating” value (johnsongrass; [12]) was 100 and the “Nutsedge, Yellow plant response rating” value (yellow nutsedge; [9]) was 20. For the same compound, the “Nutsedge, Yellow plant response rating” value (yellow nutsedge; [10]) was 60, the “Plant response rating, Nutsedge, Yellow” value (yellow nutsedge; [11]) was 0 and the “Nutsedge, Yellow plant response rating” value (yellow nutsedge; [12]) was 100. For the same compound, the “Corn plant response rating” value (corn; [9]) was 75, the “Corn plant response rating” value (corn; [10]) was 90 and the “Plant response rating, Corn” value (corn; [11]) was 40. For the same compound, the “Corn plant response rating” value (corn; [12]) was 98, the “Bromegrass, Downy plant response rating” value (downy brome; [9]) was 45 and the “Bromegrass, Downy plant response rating” value (downy brome; [10]) was 90. For the same compound, the “Plant response rating, Bromegrass, Downy” value (downy brome; [11]) was 40, the “Bromegrass, Downy plant response rating” value (downy brome; [12]) was 100 and the “Soybean plant response rating” value (soybean; [9]) was 60. The “Soybean plant response rating” value (soybean; [10]) was 75, the “Plant response rating, Soybean” value (soybean; [11]) was 0 and the “Soybean plant response rating” value (soybean; [12]) was 85. For the same compound, the “Plant response rating, Wheat” value (wheat; [5]) was 50, the “Wheat plant response rating” value (wheat; [6]) was 60 and the “Wheat plant response rating” value (wheat; [7]) was 70. For the same compound, the “Wheat plant response rating” value (wheat; [8]) was 100, the “Plant response rating, Morningglory” value (morningglory [1]; [5]) was 70 and the “Morningglory plant response rating” value (morningglory [1]; [6]) was 100. For the same compound, the “Morningglory plant response rating” value (morningglory [1]; [7]) was 80, the “Morningglory plant response rating” value (morningglory [1]; [8]) was 100 and the “Goosegrass plant response rating” value (Goosegrass; [9]) was 85. The “Goosegrass plant response rating” value (Goosegrass; [10]) was 100, the “Plant response rating, Goosegrass” value (Goosegrass; [11]) was 80 and the “Goosegrass plant response rating” value (Goosegrass; [12]) was 100. For the same compound, the “Cocklebur plant response rating” value (cocklebur; [9]) was 0, the “Cocklebur plant response rating” value (cocklebur; [10]) was 10 and the “Plant response rating, Cocklebur” value (cocklebur; [11]) was 0. For the same compound, the “Cocklebur plant response rating” value (cocklebur; [12]) was 15, the “Morningglory plant response rating” value (morningglory [2]; [9]) was 60 and the “Morningglory plant response rating” value (morningglory [2]; [10]) was 100. For the same compound, the “Plant response rating, Morningglory” value (morningglory [2]; [11]) was 20, the “Morningglory plant response rating” value (morningglory [2]; [12]) was 100 and the “Lambsquarters plant response rating” value (lambsquarters; [9]) was 100. For the same compound, the “Lambsquarters plant response rating” value (lambsquarters; [10]) was 100, the “Plant response rating, Lambsquarters” value (lambsquarters; [11]) was 80 and the “Lambsquarters plant response rating” value (lambsquarters; [12]) was 100. For the same compound, the “Foxtail, Giant plant response rating” value (giant foxtail [3]; [9]) was 80, the “Foxtail, Giant plant response rating” value (giant foxtail [3]; [10]) was 95 and the “Plant response rating, Foxtail, Giant” value (giant foxtail [3]; [11]) was 70. For the same compound, the “Foxtail, Giant plant response rating” value (giant foxtail [3]; [12]) was 98, the “Cupgrass, Woolly plant response rating” value (woolly cupgrass; [9]) was 80 and the “Cupgrass, Woolly plant response rating” value (woolly cupgrass; [10]) was 85. The “Plant response rating, Cupgrass, Woolly” value (woolly cupgrass; [11]) was 40, the “Cupgrass, Woolly plant response rating” value (woolly cupgrass; [12]) was 95 and the “Plant response rating, Foxtail, Giant” value (giant foxtail [4]; [5]) was 80. The “Foxtail, Giant plant response rating” value (giant foxtail [4]; [6]) was 90, the “Foxtail, Giant plant response rating” value (giant foxtail [4]; [7]) was 100 and the “Foxtail, Giant plant response rating” value (giant foxtail [4]; [8]) was 100.
